Experimental data from US11596939B2, “Lamp component distribution in a microfluid cell” (priority 2017, dated 2023).

Experiments:
target DNA = assay: Sample pre-treatment with antimicrobial peptides before isothermal amplification; details: sample pre-treatment with peptide
LAMP reaction [1] = assay: Effect of antimicrobial peptides on the amplification (LAMP) reaction; format: biochemical
Description: The use of peptides with higher concentrations may inhibit the amplification reaction in certain extent in comparison of ideal conditions, e.g. pure water (MQ). This is a drawback of use of peptides. However, not all the peptides have an equal effect.
This effect is explained by secondary property of peptides, which is an anti-inhibitory effect. Meaning, that in additionally to lysis effect, peptides also neutralizing inhibitory substances in real samples.

LAMP reaction [2] = assay: ProClin950 in BlisterBuffer, effect on LAMP reaction; format: biochemical; details: added to BlisterBuffer
Description: Additionally, we added ProClin950 a biozide to the BlisterBuffer in order to inhibit microbial growth.

Row | Molecule | increase in isothermal amplification efficiency (target DNA) | also measured
1 | Cecropin P1 (SWLSKTAKKLENSAKKRISEGIAIAIQGGPR; Cecropin P1; listed as Ascaris suum) |  | increase of the target DNA available for the isothermal amplification (target DNA; on average): 6 times; inhibitory effect on the amplification reaction (LAMP reaction [1]; among current selection of peptides, compared with pure water (MQ)): lowest inhibitory effect; effect on amplification in urinary sample (LAMP reaction [1]; in comparison of pure urinary sample): enhancing effect
2 | CC[C@H](C)[C@H](NC(=O)CN)C(=O)NCC(=O)N[C@@H](C)C(=O)N[C@H](C(=O)N[C@@H](CC(C)C)C(=O)N[C@@H](CCCCN)C(=O)N[C@H](C(=O)N[C@@H](CC(C)C)C(=O)N[C@H](C(=O)N[C@H](C(=O)NCC(=O)N[C@@H](CC(C)C)C(=O)N1CCC[C@H]1C(=O)N[C@@H](C)C(=O)N[C@@H](CC(C)C)C(=O)N[C@H](C(=O)N[C@@H](CO)C(=O)N[C@@H](Cc1c[nH]c2ccccc12)C(=O)N[C@H](C(=O)N[C@@H](CCCCN)C(=O)N[C@@H](CCCNC(=N)N)C(=O)N[C@@H](CCCCN)C(=O)N[C@@H](CCCNC(=N)N)C(=O)N[C@@H](CCC(N)=O)C(=O)N[C@@H](CCC(N)=O)C(N)=O)[C@@H](C)CC)[C@@H](C)CC)[C@@H](C)O)[C@@H](C)O)C(C)C)C(C)C [melittin, Melittin] | did not give significant increase | 
3 | MSI-594 | did not give significant increase | 
4 | bombolitin III | did not give significant increase | 
5 | MSI-78 | did not give significant increase | 
6 | Cn1sccc1=O [ProClin950, 2-Methyl-4-isothiazolin-3-one] |  | inhibition of the LAMP reaction (LAMP reaction [2]): did not inhibit
